Results as given in paper PMC9854539, “QSAR Studies, Molecular Docking, Molecular Dynamics, Synthesis, and Biological Evaluation of Novel Quinolinone-Based Thiosemicarbazones against Mycobacterium tuberculosis” (Antibiotics, 2022).
≈ marks a conversion by molar mass, not a printed value.

What was measured:
Assay type in all cases: cell-based, Mycobacterium tuberculosis
[1] = system: M. tuberculosis Orphan; test: Spot culture growth inhibition assay (SPOTi), MIC; settings: Mycobacterium tuberculosis; multiresistant to isoniazid and rifampicin
[2] = system: M. tuberculosis Beijing; test: Spot culture growth inhibition assay (SPOTi), MIC; settings: multiresistant to isoniazid and rifampicin
[3] = system: M. tuberculosis LAM 9; test: Spot culture growth inhibition assay (SPOTi), MIC; settings: multiresistant to isoniazid and rifampicin
[4] = system: M. tuberculosis Haarlem; test: Spot culture growth inhibition assay (SPOTi), MIC; settings: multiresistant to isoniazid and rifampicin
[5] = system: M. tuberculosis ATCC 35838; test: Spot culture growth inhibition assay (SPOTi), MIC; settings: rifampicin resistant
[6] = system: M. tuberculosis ATCC 35822; test: Spot culture growth inhibition assay (SPOTi), MIC; settings: isoniazid resistant
[7] = system: multiresistant M. tuberculosis; settings: summary of Table 9
[8] = Mycobacterium tuberculosis, LAM9
[9] = Mycobacterium tuberculosis, ATCC35838
[10] = Mycobacterium tuberculosis, ATCC35822

CC(/C=C/c1cc2cccc(C)c2[nH]c1=O)=N\NC(N)=S [Compound 11c, (E)-2-((E)-4-(8-Methyl-2-oxo-1,2-dihydroquinolin-3-yl)but-3-en-2-ylidene)hydrazine-1-carbothioamide]
MIC [1]: 66.6 µM (≈ 20 µg/mL)
MIC ([2]; Mycobacterium tuberculosis): 0.33 µM (≈ 0.0991 µg/mL)
MIC [3, 8]: 3.29 µM (≈ 0.988 µg/mL)
MIC ([4]; Mycobacterium tuberculosis): 33.3 µM (≈ 10 µg/mL)
MIC [5, 9]: 1.66 µM (≈ 0.499 µg/mL)
MIC [6, 10]: 0.33 µM (≈ 0.0991 µg/mL)

CC(/C=C/c1cc2cc(C)ccc2[nH]c1=O)=N\NC(N)=S [Compound 11b, (E)-2-((E)-4-(6-Methyl-2-oxo-1,2-dihydroquinolin-3-yl)but-3-en-2-ylidene)hydrazine-1-carbothioamide]
MIC [1]: 33.3 µM (≈ 10 µg/mL)
MIC ([2]; Mycobacterium tuberculosis): 1.66 µM (≈ 0.499 µg/mL)
MIC [3, 8]: 16.6 µM (≈ 5 µg/mL)
MIC ([4]; Mycobacterium tuberculosis): 3.33 µM (≈ 1 µg/mL)
MIC [5, 9]: 3.33 µM (≈ 1 µg/mL)
MIC [6, 10]: 3.33 µM (≈ 1 µg/mL)

CC(/C=C/c1cc2ccc(Cl)cc2[nH]c1=O)=N\NC(N)=S [Compound 11d, (E)-2-((E)-4-(7-Chloro-2-oxo-1,2-dihydroquinolin-3-yl)but-3-en-2-ylidene)hydrazine-1-carbothioamide]
MIC [1]: 6.23 µM (≈ 2 µg/mL)
MIC ([2]; Mycobacterium tuberculosis): 0.33 µM (≈ 0.106 µg/mL)
MIC [3, 8]: 3.12 µM (≈ 1 µg/mL)
MIC ([4]; Mycobacterium tuberculosis): 1.56 µM (≈ 0.5 µg/mL)
MIC [5, 9]: 3.33 µM (≈ 1.07 µg/mL)
MIC [6, 10]: 6.23 µM (≈ 2 µg/mL)

CC1COc2c(N3CCN(C)CC3)c(F)cc3c(=O)c(C(=O)O)cn1c23 (stereo not drawn) [Oxafloxacin, reference compound]
MIC [2]: 2.76 µM (≈ 0.997 µg/mL)
MIC [3]: 2.76 µM (≈ 0.997 µg/mL)
MIC [4]: 2.76 µM (≈ 0.997 µg/mL)
MIC [5]: 2.76 µM (≈ 0.997 µg/mL)
MIC [6]: 2.76 µM (≈ 0.997 µg/mL)
MIC against the different families of multiresistant M. tuberculosis [7]: 2.76 µM

CC(/C=C/c1cc2cc(Br)ccc2[nH]c1=O)=N\NC(N)=S [Compound 11e, (E)-2-((E)-4-(6-Bromo-2-oxo-1,2-dihydroquinolin-3-yl)but-3-en-2-ylidene)hydrazine-1-carbothioamide]
MIC [1]: 27.4 µM (≈ 10 µg/mL)
MIC ([2]; Mycobacterium tuberculosis): 0.27 µM (≈ 0.0986 µg/mL)
MIC [3, 8]: 2.74 µM (≈ 1 µg/mL)
MIC ([4]; Mycobacterium tuberculosis): 27.4 µM (≈ 10 µg/mL)
MIC [5, 9]: 2.73 µM (≈ 0.997 µg/mL)
MIC [6, 10]: 1.37 µM (≈ 0.5 µg/mL)
